The values below come from ChEMBL document CHEMBL1121491, “Ultraviolet photoelectron spectroscopy of cyclic amidines. 2. Electronic structure of clonidine and some related 2-(phenylimino)imidazolidines with alpha-adrenergic activity” (1980).

SMILES strings stand for the structures.

For the assay, the system named is Rattus norvegicus. Put plainly: Hypotensive activity by intravenous administration to rats. It counts as functional.
For the compound `Cc1cccc(C)c1N=C1NCCN1`, the Log 1/ED50 was found to be 0.85.

The compound `Clc1ccccc1N=C1NCCN1` gave a Log 1/ED50 of 0.13.

In turn, `Fc1cccc(F)c1N=C1NCCN1` came in with a Log 1/ED50 of -0.41.

Compound `c1ccc(NC2=NCCN2)cc1` gave a Log 1/ED50 of -2.1.

For the compound `Cc1ccccc1N=C1NCCN1`, the Log 1/ED50 was -0.67.

The compound `c1cc2c(c(NC3=NCCN3)c1)CCCC2` [TRAMAZOLINE] had a Log 1/ED50 of 0.47.

`Clc1cccc(Cl)c1NC1=NCCN1` [CLONIDINE] showed a Log 1/ED50 of 1.99.
